The values that follow come from patent US10144715B2, “Piperazine derivatives as liver X receptor modulators” (priority 2014, dated 2018).

For orientation: Ki means a dissociation constant, usually derived from enzyme kinetics or from competition with a known ligand. The term EC50 denotes the concentration that produces a half-maximal response.

Where two headings read alike, the source gives them in different places.

Assay [1] has as its target LXR β LBD protein (Homo sapiens (Human), UniProt P55055). Briefly: biochemical. Format: binding.
In assay [2] the target is LXR α LBD protein (Homo sapiens (Human), UniProt Q13133). Kind of assay: LXR α radioligand binding assay (SPA, competition with [3H]TO901317). To be noted: read-out: LXRα Binding Ki.
Assay [3] addresses Gal4 DNA binding domain fused to the LBD of LXRα in HEK293 cells (Homo sapiens (Human), UniProt Q13133). Kind of assay: LXR luciferase transcriptional reporter gene assay, agonist mode, LXRα. Conditions: for EC50: read-out: Cell LXRα EC50. The format is cell-based. In general terms: A reporter such as luciferase makes a cellular process visible.
In assay [4] the target is Gal4 DNA binding domain fused to the LBD of LXRβ in HEK293 cells (Homo sapiens (Human), UniProt P55055). Kind of assay: cell-based.
The mark [5] stands for this setting: Biological Test Example 2, agonist mode.

Chain of LXR β LBD protein (P55055 222-460 limits assumed): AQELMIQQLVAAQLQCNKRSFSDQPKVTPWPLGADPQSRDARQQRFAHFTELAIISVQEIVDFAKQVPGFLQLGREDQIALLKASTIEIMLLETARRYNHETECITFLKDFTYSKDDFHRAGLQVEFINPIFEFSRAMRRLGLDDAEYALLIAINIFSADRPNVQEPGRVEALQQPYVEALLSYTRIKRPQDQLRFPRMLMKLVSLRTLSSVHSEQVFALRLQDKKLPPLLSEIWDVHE
Chain of Gal4 DNA binding domain fused to the LBD of LXRβ in HEK293 cells (P55055 222-460 limits assumed): as above
Chain of LXR α LBD protein (Q13133 209-447): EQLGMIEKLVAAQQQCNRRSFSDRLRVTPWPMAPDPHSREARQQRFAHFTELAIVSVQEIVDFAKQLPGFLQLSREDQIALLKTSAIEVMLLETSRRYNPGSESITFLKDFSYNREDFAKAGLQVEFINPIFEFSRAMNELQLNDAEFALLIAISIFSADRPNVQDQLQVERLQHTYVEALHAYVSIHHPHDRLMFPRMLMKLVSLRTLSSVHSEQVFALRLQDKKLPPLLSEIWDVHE
Chain of Gal4 DNA binding domain fused to the LBD of LXRα in HEK293 cells (Q13133 209-447): as above

Take `CC(C)[C@@H]1CN(c2ccc(F)c(S(C)(=O)=O)c2)CCN1c1nc(C(F)(F)F)c(C(C)(C)O)s1` [Cpd No 26-1, (R)-2-(2-(4-(4-fluoro-3-(methylsulfonyl)phenyl)-2-isopropylpiperazin-1-yl)-4-(trifluoromethyl)thiazol-5-yl)propan-2-ol]: the inhibition constant (Ki) in assay [1] (read-out: LXRβ Binding Ki) came out at 5 nM; in assay [2] it was 111 nM. In assay [3], the “Cell LXRα efficacy” value is listed as 584 (102) %. The figures for the EC50 in assay [3] (agonist mode) and in assay [4] were 584 nM and 185 nM, respectively. Moreover, the “Cell LXRβ efficacy” value in assay [4] (agonist mode) is reported as 185 (98) %.

Consider `CS(=O)(=O)c1cccc(N2CCN(C[C@@H]3CCC(C(F)(F)F)OC3)[C@@H](c3ccc(F)cc3)C2)c1` (single isomer, unassigned) [49-12], for which the values for the Ki in assay [1] and in assay [2] were 184 nM and 1770 nM, respectively. The “Cell LXRα efficacy” value in assay [3] is recorded as 2637 (51) %. Also, the half-maximal effective concentration (EC50) was 2640 nM in assay [3] and 522 nM in assay [4]. For the same molecule, the “Cell LXRβ efficacy” value in assay [4] (setting [5]) was 522 (25) %.

For `CC(C)[C@H]1CN(c2ccc(CO)c(S(C)(=O)=O)c2)CCN1Cc1ccc(C(F)(F)F)cc1` [47-2, (S)-(4-(3-isopropyl-4-(4-(trifluoromethyl)benzyl)piperazin-1-yl)-2-(methylsulfonyl)phenyl)methanol], the inhibition constant Ki in assay [1] (read-out: LXRβ Binding Ki) is 27 nM; in assay [2], 119 nM. Besides, the “Cell LXRα efficacy” value in assay [3] is reported as 455 (70) %. The EC50 in assay [3] worked out at 455 nM; in assay [4] it was 159 nM. The “Cell LXRβ efficacy” value in assay [4] was 159 (65) %.

Regarding `CC(C)[C@@H]1CN(c2ccc(F)c(S(C)(=O)=O)c2)CCN1c1ncc([C@@H](C)O)c(C(F)(F)F)n1` [Cpd No 12-3, (R)-1-(2-((R)-4-(4-fluoro-3-(methylsulfonyl)phenyl)-2-isopropylpiperazin-1-yl)-4-(trifluoromethyl)pyrimidin-5-yl)ethan-1-ol], the Ki in assay [1] was 6 nM; in assay [2], 168 nM. Further, the “Cell LXRα efficacy” value in assay [3] is on record as 769 (43) %. The results for the EC50 in assay [3] and in assay [4] were 769 nM and 84 nM, respectively. The “Cell LXRβ efficacy” value in assay [4] (agonist mode) is recorded as 84 (29) %.

Consider `CCN(CCOC)C(=O)c1cnc(N2CCN(c3ccc(F)c(S(C)(=O)=O)c3)C[C@H]2C(C)C)nc1C` [17-30, (R)-N-ethyl-2-(4-(4-fluoro-3-(methylsulfonyl)phenyl)-2-isopropylpiperazin-1-yl)-N-(2-methoxyethyl)-4-methylpyrimidine-5-carboxamide], for which the Ki in assay [1] is 1800 nM; in assay [2] it was above 3330 nM. Besides, the EC50 in assay [3] (agonist mode) and in assay [4] was above 20000 nM each time.

Take `CC(C)[C@@H]1CN(c2ccc(F)c(S(C)(=O)=O)c2)CCN1c1ncc(CN(C)CCCO)c(C(F)(F)F)n1` [15-9, (R)-3-(((2-(4-(4-fluoro-3-(methylsulfonyl)phenyl)-2-isopropylpiperazin-1-yl)-4-(trifluoromethyl)pyrimidin-5-yl)methyl)(methyl)amino)propan-1-ol]: the Ki in assay [1] worked out at 146 nM; in assay [2] it was 2060 nM. In addition, the “Cell LXRα efficacy” value in assay [3] is on record as 4170 (10) %. Also, the 50% effective concentration (EC50) in assay [3] (agonist mode) is 4170 nM; in assay [4], above 20000 nM.

Turning to `CC(C)[C@@H]1CN(c2cc(S(C)(=O)=O)c(C(N)=O)cc2Cl)CCN1c1nccc(C(F)(F)F)n1` [4-4, (R)-5-chloro-4-(3-isopropyl-4-(4-(trifluoromethyl)pyrimidin-2-yl)piperazin-1-yl)-2-(methylsulfonyl)benzamide], the figures for the Ki in assay [1] (read-out: LXRβ Binding Ki) and in assay [2] were 1630 nM and above 3330 nM, respectively. Further, the “Cell LXRα efficacy” value in assay [3] is 2852 (7) %. Besides, the results for the EC50 in assay [3] (agonist mode) and in assay [4] were 2850 nM and 1350 nM, respectively.

In the case of `CC(C)[C@@H]1CN(c2ccc(F)c(S(C)(=O)=O)c2)CCN1c1nc2ccccc2s1` [7-56, (R)-2-(4-(4-fluoro-3-(methylsulfonyl)phenyl)-2-isopropylpiperazin-1-yl)benzo[d]thiazole], the Ki in assay [1] (read-out: LXRβ Binding Ki) came out at 15 nM; in assay [2], 146 nM. In addition, the “Cell LXRα efficacy” value in assay [3] was 770 (70) %. The results for the concentration for a half-maximal effect (EC50) in assay [3] and in assay [4] were 770 nM and 99 nM, respectively. In addition, the “Cell LXRβ efficacy” value in assay [4] is on record as 99 (51) %.

As for `CS(=O)(=O)c1cccc(N2CCN(C[C@@H]3C[C@H]4CC[C@@H](C3)N4CC(F)(F)F)[C@H](c3ccccc3)C2)c1` [48-75, (1R,3s,5S)-3-(((R)-4-(3-(methylsulfonyl)phenyl)-2-phenylpiperazin-1-yl)methyl)-8-(2,2,2-trifluoroethyl)-8-azabicyclo[3.2.1]octane], the Ki in assay [1] (Biological Test Example 1, read-out: LXRβ Binding Ki) was determined as 940 nM. Also, the EC50 is above 20000 nM in assay [3] and 2400 nM in assay [4] (Biological Test Example 2, agonist mode, read-out: Cell LXRβ EC50). For the same molecule, in assay [4] (setting [5]), the “Cell LXRβ efficacy” value was determined as 21%.

For `COC(=O)c1cnc(N2CCN(c3ccc(F)c(S(C)(=O)=O)c3)C[C@H]2c2ccc(F)cc2)nc1C(F)(F)F` [9-9, methyl (R)-2-(4-(4-fluoro-3-(methylsulfonyl)phenyl)-2-(4-fluorophenyl)piperazin-1-yl)-4-(trifluoromethyl)pyrimidine-5-carboxylate], the Ki in assay [1] (read-out: LXRβ Binding Ki) amounted to 298 nM. The “Cell LXRα efficacy” value in assay [3] is on record as 3041 (6) %. Also, the 50% effective concentration (EC50) came to 3040 nM in assay [3] (agonist mode) and 780 nM in assay [4]. The “Cell LXRβ efficacy” value in assay [4] (agonist mode) was 780 (13) %.

As to `CC(F)(F)[C@H]1CC[C@@H](CN2CCN(c3cccc(S(C)(=O)=O)c3)C[C@@H]2c2ccccc2)CC1` (single isomer, unassigned) [48-28], the inhibitory constant (Ki) in assay [1] (read-out: LXRβ Binding Ki) is 1340 nM. For the same molecule, the concentration giving a half-maximal response (EC50) in assay [3] is above 20000 nM; in assay [4] (agonist mode, read-out: Cell LXRβ EC50) it was 6480 nM. Besides, in assay [4] (agonist mode), the “Cell LXRβ efficacy” value was determined as 12%.

Regarding `CC(C)[C@@H]1CN(c2ccc(F)c(S(C)(=O)=O)c2)CCN1c1ncc(C(=O)N2CC(N)C2)c(C(F)(F)F)n1` [17-4, (R)-(3-aminoazetidin-1-yl)(2-(4-(4-fluoro-3-(methylsulfonyl)phenyl)-2-isopropylpiperazin-1-yl)-4-(trifluoromethyl)pyrimidin-5-yl)methanone], the Ki in assay [1] (read-out: LXRβ Binding Ki) came to 512 nM. For the same molecule, the EC50 in assay [3] (agonist mode) is above 20000 nM; in assay [4], 833 nM. The “Cell LXRβ efficacy” value in assay [4] (agonist mode) is listed as 833 (6) %.

In assay [1], `CS(=O)(=O)c1cccc(N2CCN(C[C@@H]3CC[C@@H](C(F)(F)F)OC3)[C@@H](c3ccc(F)cc3)C2)c1` (single isomer, unassigned) [49-11] yielded an inhibition constant Ki of 214 nM. Besides, in assay [3], the “Cell LXRα efficacy” value was 2460 (42) % and the concentration giving a half-maximal response (EC50) worked out at 2460 nM. Also, the midpoint of the response in assay [4], the EC50, lay at 887 nM. The “Cell LXRβ efficacy” value in assay [4] (setting [5]) is 887 (21) %.

Regarding `CS(=O)(=O)c1cccc(N2CCN(CC3CCN(CC(F)(F)F)CC3)[C@H](c3ccccc3Cl)C2)c1` [48-56, (R)-2-(2-chlorophenyl)-4-(3-(methylsulfonyl)phenyl)-1-((1-(2,2,2-trifluoroethyl)piperidin-4-yl)methyl)piperazine], the inhibition constant Ki in assay [1] (read-out: LXRβ Binding Ki) stood at 1670 nM. Moreover, the EC50 in assay [3] is above 20000 nM. In assay [4], the “Cell LXRβ efficacy” value was 4014 (16) % and the EC50 came out at 4010 nM.

In the case of `CC(C)[C@@H]1CN(c2ccc(F)c(S(C)(=O)=O)c2)CCN1c1ncc(C(=O)N2CC(O)C2)c(C(F)(F)F)n1` [17-5, (R)-(2-(4-(4-fluoro-3-(methylsulfonyl)phenyl)-2-isopropylpiperazin-1-yl)-4-(trifluoromethyl)pyrimidin-5-yl)(3-hydroxyazetidin-1-yl)methanone], the Ki in assay [1] (read-out: LXRβ Binding Ki) was determined as 396 nM. The half-maximal effective concentration (EC50) in assay [3] (agonist mode) and in assay [4] was above 20000 nM in each case.

For the molecule `CCOC(=O)c1cnc(N2CCN(c3ccc(F)c(S(C)(=O)=O)c3)CC2CC(F)(F)F)nc1C` (centres unmarked) [7-22, ethyl 2-(4-(4-fluoro-3-(methylsulfonyl)phenyl)-2-(2,2,2-trifluoroethyl)piperazin-1-yl)-4-methylpyrimidine-5-carboxylate], in assay [1] (read-out: LXRβ Binding Ki), the Ki stood at 17 nM. Also, the “Cell LXRα efficacy” value in assay [3] is on record as 1038 (43) %. For the same molecule, the EC50 in assay [3] (agonist mode) turned out to be 1040 nM; in assay [4], 191 nM. Moreover, in assay [4] (agonist mode), the “Cell LXRβ efficacy” value is listed as 191 (31) %.

Consider `Cc1nc(N2CCN(c3ccc(F)c(S(C)(=O)=O)c3)C[C@H]2C(C)C)ncc1C(F)(F)F` [Cpd No 37-1, (R)-2-(4-(4-fluoro-3-(methylsulfonyl)phenyl)-2-isopropylpiperazin-1-yl)-4-methyl-5-(trifluoromethyl)pyrimidine], for which the Ki in assay [1] (read-out: LXRβ Binding Ki) was 3 nM. In assay [3], the “Cell LXRα efficacy” value is 262 (91) % and the EC50 was 262 nM. For the same molecule, in assay [4], the “Cell LXRβ efficacy” value is reported as 41 (81) % and the concentration for a half-maximal effect (EC50) is 41 nM.

In the case of `C=C(C)c1cnc(N2CCN(c3ccc(CO)c(S(C)(=O)=O)c3)C[C@H]2C(C)C)nc1C(F)(F)F` [14-2, (R)-(4-(3-isopropyl-4-(5-(prop-1-en-2-yl)-4-(trifluoromethyl)pyrimidin-2-yl)piperazin-1-yl)-2-(methylsulfonyl)phenyl)methanol], the Ki in assay [1] (read-out: LXRβ Binding Ki) was determined as 1 nM. The “Cell LXRα efficacy” value in assay [3] is given as 186 (63) %. The EC50 in assay [3] (agonist mode) worked out at 186 nM; in assay [4] it was 28 nM. In addition, in assay [4] (agonist mode), the “Cell LXRβ efficacy” value is on record as 28 (42) %.

As for `CC(=O)c1cnc(N2CCN(c3ccc(F)c(S(C)(=O)=O)c3)C[C@H]2c2ccc(F)cc2)nc1C(F)(F)F` [13-3, (R)-1-(2-(4-(4-fluoro-3-(methylsulfonyl)phenyl)-2-(4-fluorophenyl)piperazin-1-yl)-4-(trifluoromethyl)pyrimidin-5-yl)ethan-1-one], the inhibition constant Ki in assay [1] (read-out: LXRβ Binding Ki) is 88 nM. Moreover, the “Cell LXRα efficacy” value in assay [3] is listed as 2458 (21) %. Moreover, the values for the concentration giving a half-maximal response (EC50) in assay [3] and in assay [4] were 2460 nM and 360 nM, respectively. For the same molecule, the “Cell LXRβ efficacy” value in assay [4] (agonist mode) is given as 360 (18) %.

Turning to `COC(=O)c1cc(CN2CCN(c3cccc(S(C)(=O)=O)c3)CC2c2ccccc2)ccc1C(F)(F)F` (centres unmarked) [46-36, methyl 5-((4-(3-(methylsulfonyl)phenyl)-2-phenylpiperazin-1-yl)methyl)-2-(trifluoromethyl)benzoate], the Ki in assay [1] (read-out: LXRβ Binding Ki) amounted to 244 nM. Moreover, the “Cell LXRα efficacy” value in assay [3] was 11251 (20) %. The 50% effective concentration (EC50) in assay [3] (agonist mode) was found to be 11300 nM; in assay [4], 4760 nM. The “Cell LXRβ efficacy” value in assay [4] (agonist mode) was 4759 (14) %.
